# Test results: ChEMBL document CHEMBL1146155, “NC-100717: a versatile RGD peptide scaffold for angiogenesis imaging” (Bioorg Med Chem Lett, 2006)
# *1 amine or outer side, *2 acyl side, *3 side chain or, on linkers, in order; H or OH if unused. Where a SMILES comes first, the peptide text is derived from it. Bridges are numbered along the chain shown (N, C = ends). Side-chain parts run from the residue outwards. [ ]: non-standard residue; d: D form. The star is where a group is joined. X1 = O=C(COCC(=O)*)NCCOCCOCCOCCOCCOCCNC(=O)CO/N=C/c1ccc(F)cc1; DOTA = O=C(O)CN1CCN(CC(=O)O)CCN(CC(=O)*)CCN(CC(=O)O)CC1; Gly(2R-SCH2CO) = O=C([C@H](N[*:1])SCC(=O)[*:3])[*:2]; X3 = C/C(=N\O)C(C)(C)NCCC(CCNC(C)(C)/C(C)=N/O)CCN*; Gly(αR-SH) = O=C([C@H](N[*:1])S[*:3])[*:2]; Glutaryl = O=C(CCCC(=O)[*:2])[*:1]; X2 = NC(=O)COCC(=O)NCCOCCOCCOCCN*
# Test: Displacement of [125I]echistatin from AlphaVbeta3/AlphaVbeta5 integrin receptor in EAHy 926 cells
# Type: cell-based, Homo sapiens
row,SMILES,Ki
1,N=C(N)NCCC[C@@H]1NC(=O)[C@@H]2NC(=O)[C@H](CCCCNC(=O)CN3CCN(CC(=O)O)CCN(CC(=O)O)CCN(CC(=O)O)CC3)NC(=O)CS[C@H](C(=O)NCCOCCOCCOCCNC(=O)COCC(N)=O)NC(=O)[C@H](Cc3ccccc3)NC(=O)[C@H](NC(=O)[C@H](CC(=O)O)NC(=O)CNC1=O)SS2 (K(DOTA)[Gly(αR-SH)]RGD[Gly(αR-SH)]F[Gly(2R-SCH2CO)]-X2; disulfide 2-6; lactam N-8),3.2 nM
2,C/C(=N\O)C(C)(C)NCCC(CCNC(=O)CCCC(=O)NCCCC[C@@H]1NC(=O)CS[C@H](C(=O)NCCOCCOCCOCCNC(=O)COCC(N)=O)NC(=O)[C@H](Cc2ccccc2)NC(=O)[C@@H]2NC(=O)[C@H](CC(=O)O)NC(=O)CNC(=O)[C@H](CCCNC(=N)N)NC(=O)[C@H](NC1=O)SS2)CCNC(C)(C)/C(C)=N/O (K([Glutaryl-X3])[Gly(αR-SH)]RGD[Gly(αR-SH)]F[Gly(2R-SCH2CO)]-X2; disulfide 2-6; lactam N-8),3.1 nM
3,CC[N+]1=C(/C=C/C=C/C=C2/N(CCCCCC(=O)NCCCC[C@@H]3NC(=O)CS[C@H](C(=O)NCCOCCOCCOCCNC(=O)COCC(N)=O)NC(=O)[C@H](Cc4ccccc4)NC(=O)[C@@H]4NC(=O)[C@H](CC(=O)O)NC(=O)CNC(=O)[C@H](CCCNC(=N)N)NC(=O)[C@H](NC3=O)SS4)c3ccc4c(S(=O)(=O)O)cc(S(=O)(=O)O)cc4c3C2(C)C)C(C)(C)c2c1ccc1c(S(=O)(=O)[O-])cc(S(=O)(=O)O)cc21,0.75 nM
4,N=C(N)NCCC[C@@H]1NC(=O)[C@@H]2NC(=O)[C@H](CCCCN)NC(=O)CS[C@H](C(=O)NCCOCCOCCOCCNC(=O)COCC(N)=O)NC(=O)[C@H](Cc3ccccc3)NC(=O)[C@H](NC(=O)[C@H](CC(=O)O)NC(=O)CNC1=O)SS2 (K[Gly(αR-SH)]RGD[Gly(αR-SH)]F[Gly(2R-SCH2CO)]-X2; disulfide 2-6; lactam N-8),6.8 nM
5,N=C(N)NCCC[C@@H]1NC(=O)[C@@H]2NC(=O)[C@H](CCCCNC(=O)COCC(=O)NCCOCCOCCOCCOCCOCCNC(=O)CO/N=C/c3ccc(F)cc3)NC(=O)CS[C@H](C(=O)NCCOCCOCCOCCNC(=O)COCC(N)=O)NC(=O)[C@H](Cc3ccccc3)NC(=O)[C@H](NC(=O)[C@H](CC(=O)O)NC(=O)CNC1=O)SS2 (K(X1)[Gly(αR-SH)]RGD[Gly(αR-SH)]F[Gly(2R-SCH2CO)]-X2; disulfide 2-6; lactam N-8),8.2 nM
